The test system of the assay is Plasmodium falciparum. The assay can be described thus: Antiplasmodial activity against late-ring/early trophozoite intraerythrocytic stage of synchronized Plasmodium falciparum 3D7 after 72 hrs by LDH assay. Conditions: 3D7, 72 h. It counts as functional, organism-based.

`Cc1cc2c(c(=O)[nH]1)C(=O)[C@]1(O)c3c(O)c4c(c5c3[C@@H](C[C@@H]1C2=O)OCO5)O[C@@H]1[C@H](O)C=CC[C@H]1C4=O` showed an IC50 of 9 nM.

The term IC50 denotes the concentration at which inhibition is half-maximal. A low value points to greater potency.

These data come from ChEMBL document CHEMBL4145624, “MDN-0185, an Antiplasmodial Polycyclic Xanthone Isolated from Micromonospora sp. CA-256353” (J Nat Prod, 2018).
